Target: T1, sweet taste receptor (Homo sapiens, UniProt Q7RTX0+Q8TE23)
T1 sequence (Q8TE23 20-839): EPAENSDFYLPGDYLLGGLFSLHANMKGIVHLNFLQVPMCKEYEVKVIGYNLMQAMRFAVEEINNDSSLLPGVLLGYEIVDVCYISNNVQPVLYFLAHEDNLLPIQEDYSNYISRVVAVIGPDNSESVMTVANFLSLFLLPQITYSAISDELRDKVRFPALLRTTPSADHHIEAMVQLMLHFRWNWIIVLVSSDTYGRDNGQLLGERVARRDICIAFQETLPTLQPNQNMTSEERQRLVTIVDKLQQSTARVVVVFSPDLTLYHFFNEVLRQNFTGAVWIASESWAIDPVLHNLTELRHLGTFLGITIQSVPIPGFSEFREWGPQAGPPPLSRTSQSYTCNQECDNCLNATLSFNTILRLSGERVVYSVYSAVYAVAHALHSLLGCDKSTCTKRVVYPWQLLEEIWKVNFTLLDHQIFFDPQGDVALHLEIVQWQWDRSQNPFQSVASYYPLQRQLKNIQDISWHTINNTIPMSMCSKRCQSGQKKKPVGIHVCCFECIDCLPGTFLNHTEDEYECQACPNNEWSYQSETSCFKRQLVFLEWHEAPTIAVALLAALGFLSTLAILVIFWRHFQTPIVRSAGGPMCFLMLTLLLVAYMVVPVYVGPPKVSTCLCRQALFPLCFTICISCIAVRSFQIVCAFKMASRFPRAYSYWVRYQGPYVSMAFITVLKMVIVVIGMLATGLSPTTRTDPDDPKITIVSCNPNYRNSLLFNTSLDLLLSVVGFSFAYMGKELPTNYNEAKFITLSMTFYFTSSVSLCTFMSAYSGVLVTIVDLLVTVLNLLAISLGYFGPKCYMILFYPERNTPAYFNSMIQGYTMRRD
T1 sequence (Q7RTX0 21-852): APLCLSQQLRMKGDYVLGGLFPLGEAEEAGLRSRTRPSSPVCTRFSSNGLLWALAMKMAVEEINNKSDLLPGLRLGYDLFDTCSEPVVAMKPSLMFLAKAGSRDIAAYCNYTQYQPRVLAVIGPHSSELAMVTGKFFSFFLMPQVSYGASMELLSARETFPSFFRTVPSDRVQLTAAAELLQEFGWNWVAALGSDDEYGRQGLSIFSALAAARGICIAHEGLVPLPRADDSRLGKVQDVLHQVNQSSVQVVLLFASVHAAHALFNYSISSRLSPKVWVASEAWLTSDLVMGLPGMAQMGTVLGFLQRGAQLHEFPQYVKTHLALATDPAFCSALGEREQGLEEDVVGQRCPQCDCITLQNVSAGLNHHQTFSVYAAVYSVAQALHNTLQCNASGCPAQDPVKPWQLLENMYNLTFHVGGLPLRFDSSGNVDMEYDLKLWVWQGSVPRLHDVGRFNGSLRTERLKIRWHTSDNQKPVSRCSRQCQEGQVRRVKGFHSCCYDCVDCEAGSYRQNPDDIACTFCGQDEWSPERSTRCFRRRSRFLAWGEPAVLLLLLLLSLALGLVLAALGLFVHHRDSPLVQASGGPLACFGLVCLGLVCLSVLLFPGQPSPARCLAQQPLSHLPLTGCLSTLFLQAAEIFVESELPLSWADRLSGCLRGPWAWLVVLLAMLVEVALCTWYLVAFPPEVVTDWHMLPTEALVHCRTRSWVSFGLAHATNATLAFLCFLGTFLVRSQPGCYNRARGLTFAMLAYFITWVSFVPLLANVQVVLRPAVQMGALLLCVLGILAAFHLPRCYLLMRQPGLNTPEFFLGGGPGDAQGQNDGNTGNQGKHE
Experiment: Synergy effects (sweet taste receptor signal increase) in binary compound mixtures
Assay type: cell-based
Settings: calculated as L(X&Y)/(L(X)+L(Y)); for Synergy effect observed in binary compound mixture with Aspartame: partner Aspartame; for Synergy effect observed in binary compound mixture with Thaumatin: partner Thaumatin; for Synergy effect observed in binary compound mixture with NHDC: partner NHDC; for Synergy effect observed in binary compound mixture with sucralose: partner sucralose; for Synergy effect observed in binary compound mixture with sucrose: partner sucrose; for Synergy effect observed in binary compound mixture with Reb A: partner Reb A
Protocol: The present example describes sweet taste receptor signal increases calculated for the following sweeteners: aspartame, sucrose, sucralose, rebaudioside A, rebaudioside D, thaumatin, NHDC, and S819 are present in various combinations in a binary mixture as shown in Table 1.
Synergy between binary mixtures of the sweeteners was calculated as following: L(X&Y)/(L(X)+L(Y)).

Row | Synergy effect observed in binary compound mixture with Aspartame | Synergy effect observed in binary compound mixture with Thaumatin | Synergy effect observed in binary compound mixture with Reb A | Compound | Synergy effect observed in binary compound mixture with NHDC | Synergy effect observed in binary compound mixture with sucralose | Synergy effect observed in binary compound mixture with sucrose
1 | 0.5 | 0.06 | – | COc1ccc(CCC(=O)c2c(O)cc(O[C@@H]3O[C@H](CO)[C@@H](O)[C@H](O)[C@H]3O[C@@H]3O[C@@H](C)[C@H](O)[C@@H](O)[C@H]3O)cc2O)cc1O [NHDC] | – | – | –
2 | – | – | – | C=C1C[C@@]23CC[C@H]4[C@@](C)(CCC[C@@]4(C)C(=O)O[C@@H]4O[C@H](CO)[C@@H](O)[C@H](O)[C@H]4O)[C@@H]2CC[C@]1(O[C@@H]1O[C@H](CO)[C@@H](O)[C@H](O[C@@H]2O[C@H](CO)[C@@H](O)[C@H](O)[C@H]2O)[C@H]1O[C@@H]1O[C@H](CO)[C@@H](O)[C@H](O)[C@H]1O)C3 [Reb A, Rebaudioside A] | 0.25 | 0.3 | 0.5
3 | – | – | – | C=C1C[C@@]23CC[C@H]4[C@@](C)(CCC[C@@]4(C)C(=O)O[C@@H]4O[C@H](CO)[C@@H](O)[C@H](O)[C@H]4O[C@@H]4O[C@H](CO)[C@@H](O)[C@H](O)[C@H]4O)[C@@H]2CC[C@]1(O[C@@H]1O[C@H](CO)[C@@H](O)[C@H](O[C@@H]2O[C@H](CO)[C@@H](O)[C@H](O)[C@H]2O)[C@H]1O[C@@H]1O[C@H](CO)[C@@H](O)[C@H](O)[C@H]1O)C3 [Reb D, Rebaudioside D] | – | 0.3 | 0.25
4 | – | 0.4 | 0.25 | CC(C)Oc1ccc(NC(=S)NCc2ccc[nH]2)cc1 [S819, 1-((1H-pyrrol-2-yl)methyl)-3-(4-isopropoxyphenyl)thiourea] | 0.4 | – | –
5 | 0.5 | – | 0.4 | Thaumatin | – | – | –

Reference: patent US20240185945A1, “SYSTEMS AND METHODS FOR MODELING AND DISPLAYING SWEETENER SYNERGY” (WM. WRIGLEY JR. COMPANY, priority 2022, published 2024)
